Patent publication US20250134869A1, “Pyrrolo[2,3-d]pyrimidinyl, Pyrrolo[2,3-b]pyrazinyl and Pyrrolo[2,3-d]pyridinyl Acryla-mides” (Pfizer Inc, priority 2021, published 2025)
Like-named read-outs stand apart in the source and are kept apart here.

Target: JAK3 enzyme (Homo sapiens (Human), UniProt P52333)
Experiment: JAK Caliper Enzyme Assay at 4 μM or 1 mM ATP
Type: biochemical
[1] = read-out: JAK3 (4 μM ATP) IC50, 4 μM ATP
[2] = read-out: JAK3 (1 mM ATP) IC50, 1 mM ATP

JAK3 enzyme, sequence (P52333 whole entry, species assumed): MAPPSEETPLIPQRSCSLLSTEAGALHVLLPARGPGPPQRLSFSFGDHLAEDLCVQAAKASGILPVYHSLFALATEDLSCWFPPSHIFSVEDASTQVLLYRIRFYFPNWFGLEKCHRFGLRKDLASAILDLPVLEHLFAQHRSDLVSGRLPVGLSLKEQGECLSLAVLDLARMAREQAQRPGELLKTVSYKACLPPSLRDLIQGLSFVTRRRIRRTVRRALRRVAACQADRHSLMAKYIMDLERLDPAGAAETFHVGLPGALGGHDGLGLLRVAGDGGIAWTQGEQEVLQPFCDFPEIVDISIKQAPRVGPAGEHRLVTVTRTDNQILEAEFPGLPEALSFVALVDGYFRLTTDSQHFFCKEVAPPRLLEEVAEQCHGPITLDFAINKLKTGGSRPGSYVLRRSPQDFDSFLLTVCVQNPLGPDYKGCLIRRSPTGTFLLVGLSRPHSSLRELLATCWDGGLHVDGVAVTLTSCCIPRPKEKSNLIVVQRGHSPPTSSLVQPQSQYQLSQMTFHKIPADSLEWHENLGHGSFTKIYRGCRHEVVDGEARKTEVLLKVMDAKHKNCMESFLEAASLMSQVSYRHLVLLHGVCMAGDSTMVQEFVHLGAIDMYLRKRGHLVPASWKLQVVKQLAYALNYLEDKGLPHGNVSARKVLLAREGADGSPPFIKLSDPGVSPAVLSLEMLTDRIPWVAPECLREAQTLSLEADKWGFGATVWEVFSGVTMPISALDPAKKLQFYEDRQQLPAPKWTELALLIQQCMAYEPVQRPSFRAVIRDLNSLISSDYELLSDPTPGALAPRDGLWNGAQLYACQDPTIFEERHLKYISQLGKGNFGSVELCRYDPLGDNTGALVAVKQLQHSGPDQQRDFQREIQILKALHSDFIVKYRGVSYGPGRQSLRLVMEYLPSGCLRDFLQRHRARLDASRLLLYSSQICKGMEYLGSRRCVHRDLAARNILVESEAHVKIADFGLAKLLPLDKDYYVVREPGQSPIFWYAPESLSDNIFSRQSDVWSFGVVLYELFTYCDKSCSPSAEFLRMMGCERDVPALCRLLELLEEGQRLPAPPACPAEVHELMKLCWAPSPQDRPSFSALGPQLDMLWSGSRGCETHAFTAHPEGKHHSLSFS

Row | SMILES | IC50 [1] [nM] | IC50 [2] [nM]
1 | O=C(/C=C/c1c[nH]cn1)N1CCC[C@@H](Nc2ncnc3[nH]ccc23)C1 [Example 107, (2E)-3-(1H-imidazol-4-yl)-1-[(3R)-3-(7H-pyrrolo[2,3-d]pyrimidin-4-ylamino)piperidin-1-yl]prop-2-en-1-one] | 1160 | –
2 | C=CC(=O)N1CCN(c2cnc3[nH]cc(C(=O)NC(C)C)c3n2)CC1(C)C [Example 293, 2-(4-acryloyl-3,3-dimethylpiperazin-1-yl)-N-(propan-2-yl)-5H-pyrrolo[2,3-b]pyrazine-7-carboxamide] | 0.6 | 107
3 | C=CC(=O)N1CC[C@@H]2CN(c3ncnc4[nH]ccc34)[C@@H]2C1 [Example 131, 1-[(1S,6R)-8-(7H-Pyrrolo[2,3-d]pyrimidin-4-yl)-3,8-diazabicyclo[4.2.0]oct-3-yl]prop-2-en-1-one] | 988 | –
4 | C=CC(=O)N1CCC[C@@H](Nc2ncnc3[nH]cc(C(=O)NCCO)c23)C1 [Example 143, 4-{[(3R)-1-acryloylpiperidin-3-yl]amino}-N-(2-hydroxyethyl)-7H-pyrrolo[2,3-d]pyrimidine-5-carboxamide] | 144 | –
5 | C=CC(=O)N1CCC[C@@H](Nc2ncnc3[nH]cc(-c4ccc5c(cnn5C)c4)c23)C1 [Example 34, 1-[(3R)-3-{[5-(1-methyl-1H-indazol-5-yl)-7H-pyrrolo[2,3-d]pyrimidin-4-yl]amino}piperidin-1-yl]prop-2-en-1-one] | 54.4 | 4820
6 | C=CC(=O)N1CCN(c2cnc3[nH]cc(C(=O)NC(C)C)c3n2)[C@H](CC)C1 [Example 321, 2-[(2R)-4-acryloyl-2-ethylpiperazin-1-yl]-N-(propan-2-yl)-5H-pyrrolo[2,3-b]pyrazine-7-carboxamide] | 0.9 | 144
7 | C=CC(=O)N1CCC(Nc2cnc3[nH]cc(-c4cncnc4)c3n2)CC1 [Example 202, 1-(4-{[7-(pyrimidin-5-yl)-5H-pyrrolo[2,3-b]pyrazin-2-yl]amino}piperidin-1-yl)prop-2-en-1-one] | 0.9 | 99.1
8 | C/C=C/C(=O)N1CCC[C@@H](Nc2ncnc3[nH]cc(CCOC)c23)C1 [Example 109, (2E)-1-[(3R)-3-{[5-(2-methoxyethyl)-7H-pyrrolo[2,3-d]pyrimidin-4-yl]amino}pipendin-1-yl]but-2-en-1-one] | 2820 | –
9 | C=CC(=O)N1CCC(Nc2cnc3[nH]cc(C(=O)N(C)C(C)C)c3n2)CC1 [Example 279, 2-[(1-acryloylpiperidin-4-yl)amino]-N-methyl-N-(propan-2-yl)-5H-pyrrolo[2,3-b]pyrazine-7-carboxamide] | 9.7 | 592
10 | C=CC(=O)N1C[C@H](Nc2ncnc3[nH]ccc23)CC[C@@H]1CC (single isomer, unassigned) [Example 9] | 0.4 | 53.9
11 | C=CC(=O)NC[C@@]12C[C@@H]1CN(c1cnc3[nH]ccc3n1)C2 [Example 197, N-{[(1R,5S)-3-(5H-pyrrolo[2,3-b]pyrazin-2-yl)-3-azabicyclo[3.1.0]hex-1-yl]methyl}prop-2-enamide] | 3490 | –
12 | C=CC(=O)N1CCC[C@@H](Nc2ncnc3[nH]cc(C=C)c23)C1 [Example 40, 1-{(3R)-3-[(5-ethenyl-7H-pyrrolo[2,3-d]pyrimidin-4-yl)amino]piperidin-1-yl}prop-2-en-1-one] | > 10000 | –
13 | C/C=C/C(=O)N1CCC[C@@H](Nc2ncnc3[nH]cc(C(=O)NCCO)c23)C1 [Example 148, 4-({(3R)-1-[(2E)-but-2-enoyl]piperidin-3-yl}amino)-N-(2-hydroxyethyl)-7H-pyrrolo[2,3-d]pyrimidine-5-carboxamide] | 6960 | –
14 | C=C(F)C(=O)N1CCC[C@@H](Nc2ncnc3[nH]ccc23)C1 [Example 91, 2-fluoro-1-[(3R)-3-(7H-pyrrolo[2,3-d]pyrimidin-4-ylamino)piperidin-1-yl]prop-2-en-1-one] | 56.5 | 4650
15 | C=CC(=O)N1CCC[C@@H](Nc2ncnc3[nH]cc(F)c23)C1 [Example 42, 1-{(3R)-3-[(5-fluoro-7H-pyrrolo[2,3-d]pyrimidin-4-yl)amino]piperidin-1-yl}prop-2-en-1-one] | 0.9 | 94.4
16 | C=CC(=O)N1CCC(Nc2cnc3[nH]cc(C(=O)N(C)C4CC4)c3n2)CC1 [Example 286, 2-[(1-acryloylpiperidin-4-yl)amino]-N-cyclopropyl-N-methyl-5H-pyrrolo[2,3-b]pyrazine-7-carboxamide] | 15.9 | 814
17 | C=CC(=O)N1CCC(Nc2cnc3[nH]cc(C(=O)NCCOC)c3n2)CC1 [Example 275, 2-[(1-acryloylpiperidin-4-yl)amino]-N-(2-methoxyethyl)-5H-pyrrolo[2,3-b]pyrazine-7-carboxamide] | 0.4 | 13.1
18 | C=C(C)C(=O)N1CCC[C@@H](Nc2ncnc3[nH]cc(CCOC)c23)C1 [Example 110, 1-[(3R)-3-{[5-(2-methoxyethyl)-7H-pyrrolo[2,3-d]pyrimidin-4-yl]amino}piperidin-1-yl]-2-methylprop-2-en-1-one] | 1430 | –
19 | C=CC(=O)N1CC2(C1)CN(c1cnc3[nH]ccc3n1)C2 [Example 175, 1-[6-(5H-pyrrolo[2,3-b]pyrazin-2-yl)-2,6-diazaspiro[3.3]hept-2-yl]prop-2-en-1-one] | 1610 | –
20 | C=CC(=O)N1CC[C@H](Nc2cnc3[nH]cc(C(=O)NC(C)C)c3n2)C1 [Example 171, 2-{[(3S)-1-acryloylpyrrolidin-3-yl]amino}-N-(propan-2-yl)-5H-pyrrolo[2,3-b]pyrazine-7-carboxamide] | 0.4 | 32.7
21 | C=CC(=O)N1CCC(Nc2cnc3[nH]cc(C(=O)N4CCCC4)c3n2)CC1 [Example 287, 1-(4-{[7-(pyrrolidin-1-ylcarbonyl)-5H-pyrrolo[2,3-b]pyrazin-2-yl]amino}piperidin-1-yl)prop-2-en-1-one] | 4.2 | 346
22 | C=CC(=O)N1CCN(c2cnc3[nH]cc(C(=O)NC(C)C)c3n2)C[C@@H]1CC [Example 299, 2-[(3S)-4-acryloyl-3-ethylpiperazin-1-yl]-N-(propan-2-yl)-5H-pyrrolo[2,3-b]pyrazine-7-carboxamide] | 0.7 | 55.6
23 | C=CC(=O)N1C[C@@H](Nc2ncnc3[nH]ccc23)CC[C@@H]1CC [Example 125, 1-[(2S,5S)-2-Ethyl-5-(7H-pyrrolo[2,3-d]pyrimidin-4-ylamino)piperidin-1-yl]prop-2-en-1-one] | 1420 | > 10000
24 | C=CC(=O)N1CCC(Nc2cnc3[nH]cc(C(=O)NCC(F)(F)F)c3n2)CC1 [Example 273, 2-[(1-acryloylpiperidin-4-yl)amino]-N-(2,2,2-trifluoroethyl)-5H-pyrrolo[2,3-b]pyrazine-7-carboxamide] | 0.4 | 11.4

Second part, the compound after the results:

Row | IC50 [1] [nM] | IC50 [2] [nM] | SMILES
25 | 0.2 | 8.2 | C=CC(=O)N1CCC(Nc2cnc3[nH]cc(C(=O)N[C@H](C)CCC)c3n2)CC1 [Example 274, 2-[(1-acryloylpiperidin-4-yl)amino]-N-[(2R)-pentan-2-yl]-5H-pyrrolo[2,3-b]pyrazine-7-carboxamide]
26 | 0.2 | 16.1 | C=CC(=O)N1C[C@H](Nc2ncnc3[nH]cc(Cl)c23)CC[C@@H]1C [Example 18, 1-((2S,5R)-5-((5-Chloro-7H-pyrrolo[2,3-d]pyrimidin-4-yl)amino)-2-methylpiperidin-1-yl)prop-2-en-1-one]
27 | 0.3 | 8.5 | C=CC(=O)N1CCC(Nc2cnc3[nH]cc(C(=O)N[C@@H](C)CC)c3n2)CC1 [Example 285, 2-[(1-acryloylpiperidin-4-yl)amino]-N-[(2S)-butan-2-yl]-5H-pyrrolo[2,3-b]pyrazine-7-carboxamide]
28 | 0.3 | 30.6 | C=CC(=O)N1CC[C@@H](Nc2cnc3[nH]cc(C(=O)NC(C)C)c3n2)[C@H](O)C1 [Example 196, 2-{[(3R,4R)-1-acryloyl-3-hydroxypiperidin-4-yl]amino}-N-(propan-2-yl)-5H-pyrrolo[2,3-b]pyrazine-7-carboxamide]
29 | 0.4 | 14.9 | C=CC(=O)N1CCC(Nc2cnc3[nH]cc(C(=O)NCC(C)(C)C)c3n2)CC1 [Example 271, 2-[(1-acryloylpiperidin-4-yl)amino]-N-(2,2-dimethylpropyl)-5H-pyrrolo[2,3-b]pyrazine-7-carboxamide]
30 | 0.4 | 40.2 | C=CC(=O)N1CCC(Nc2cnc3[nH]cc(C(=O)N[C@H](C(C)C)[C@@H](O)C(F)(F)F)c3n2)CC1 [Example 248, 2-[(1-acryloylpiperidin-4-yl)amino]-N-[(2R,3R)-1,1,1-trifluoro-2-hydroxy-4-methylpentan-3-yl]-5H-pyrrolo[2,3-b]pyrazine-7-carboxamide]
31 | 0.2 | 8.1 | C=CC(=O)N1CCC(Nc2cnc3[nH]cc(C(=O)N[C@@H]4CCC[C@@H]4F)c3n2)CC1 [Example 251, 2-[(1-acryloylpiperidin-4-yl)amino]-N-[(1R,2S)-2-fluorocyclopentyl]-5H-pyrrolo[2,3-b]pyrazine-7-carboxamide]
32 | 0.3 | 6.4 | C=CC(=O)N1CCC(Nc2cnc3[nH]cc(C(=O)NCCC(F)(F)F)c3n2)CC1 [Example 246, 2-[(1-acryloylpiperidin-4-yl)amino]-N-(3,3,3-trifluoropropyl)-5H-pyrrolo[2,3-b]pyrazine-7-carboxamide]
33 | 0.1 | 9.1 | C=CC(=O)N1CCC(Nc2cnc3[nH]cc(C(=O)NCCCC(F)(F)F)c3n2)CC1 [Example 240, 2-[(1-acryloylpiperidin-4-yl)amino]-N-(4,4,4-trifluorobutyl)-5H-pyrrolo[2,3-b]pyrazine-7-carboxamide]
34 | 0.2 | 6.9 | C=CC(=O)N1CCC(Nc2cnc3[nH]cc(C(=O)NCC(C)CC(F)(F)F)c3n2)CC1 (stereo not shown) [Example 253, 2-[(1-acryloylpiperidin-4-yl)amino]-N-(4,4,4-trifluoro-2-methylbutyl)-5H-pyrrolo[2,3-b]pyrazine-7-carboxamide]
35 | 0.2 | 7.3 | C=CC(=O)N1CCC(Nc2cnc3[nH]cc(C(=O)NC[C@H](C)CC(F)(F)F)c3n2)CC1 [Example 241, 2-[(1-acryloylpiperidin-4-yl)amino]-N-[(2R)-4,4,4-trifluoro-2-methylbutyl]-5H-pyrrolo[2,3-b]pyrazine-7-carboxamide]
